SMILES strings stand for the structures.

What all share (type): cell-based, human
For test [1], the system named is HCT-116 cells. The test is described as follows: Proliferation inhibition assay of cancer cells (Test Example 1), HCT-116. The settings on record: Homo sapiens, HCT-116, 96 h, HCT-116 cells, cultured for 4 days, Cell Titer-Glo; read-out: IC50 (μM) HCT; concentration for 50% inhibition of cell proliferation (Bulk IC50 value). The procedure, abridged: (§1)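 Test substance added at a final DMSO level of 0.1% and cells cultured 4 days; plating density 300-600 cells/well in 384-well plates, with human colon lines HCT-116 and HT-29 and hypopharyngeal line FaDu.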

The test system of test [2] is FaDu cells. The test is described as follows: Proliferation inhibition assay of cancer cells (Test Example 1), FaDu. The settings on record: Homo sapiens, FaDu, 96 h, FaDu cells, cultured for 4 days, Cell Titer-Glo; read-out: IC50 (μM) FaDu; concentration for 50% inhibition of cell proliferation (Bulk IC50 value). The procedure, abridged:
as §1

Test [3] deals with HT-29 cells. The test is described as follows: Proliferation inhibition assay of cancer cells (Test Example 1), HT-29. The conditions noted are these: Homo sapiens, HT-29, 96 h, HT-29 cells, cultured for 4 days, Cell Titer-Glo; read-out: IC50 (μM) HT; concentration for 50% inhibition of cell proliferation (Bulk IC50 value). The procedure, abridged: as §1
Test [4] concerns HCT-116 cells. Kind of test: Inhibition assay of cancer cell sphere-forming ability (Test Example 2), HCT-116. The conditions noted are these: Homo sapiens, HCT-116, 96 h, HCT-116 cells, Ultra-Low Attachment plate, serum-free DMEM/F12 with B27, EGF, bFGF, insulin, 4 days, Cell Titer-Glo; read-out: IC50 (μM) HCT; concentration for 50% inhibition of cell proliferation (Sphere IC50 value). The procedure, abridged:
(§2)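 Human tumour lines (colon HCT-116, HT-29; hypopharynx FaDu) seeded on ultra-low-attachment plates to form spheres. Compound added at 0.1% final DMSO, cultured 4 days.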

In test [5] the test system is FaDu cells. The test is described as follows: Inhibition assay of cancer cell sphere-forming ability (Test Example 2), FaDu. The settings on record: Homo sapiens, FaDu, 96 h, FaDu cells, Ultra-Low Attachment plate, serum-free DMEM/F12 with B27, EGF, bFGF, insulin, 4 days, Cell Titer-Glo; read-out: IC50 (μM) FaDu; concentration for 50% inhibition of cell proliferation (Sphere IC50 value). The procedure, abridged: as §2

In test [6] the test system is HT-29 cells. Kind of test: Inhibition assay of cancer cell sphere-forming ability (Test Example 2), HT-29. The conditions noted are these: Homo sapiens, HT-29, 96 h, HT-29 cells, Ultra-Low Attachment plate, serum-free DMEM/F12 with B27, EGF, bFGF, insulin, 4 days, Cell Titer-Glo; read-out: IC50 (μM) HT; concentration for 50% inhibition of cell proliferation (Sphere IC50 value). A digest of the protocol:
as §2

The test system of test [7] is cancer cells. Kind of test: Proliferation inhibition test of cancer cells, overall statement on Table 1. The conditions noted are these: summary of Table 1. As for the experimental part:
HCT-116 cells (derived from human colon adenocarcinoma), HT-29 cells (derived from human colon cancer), and FaDu cells (derived from human hypopharynx cancer) were obtained from American Type Culture Collection (ATCC). HCT-116 cells and HT-29 cells were cultured using McCoy's 5a medium containing 10% fetal bovine serum (FBS) and 1% penicillin/streptomycin, and FaDu cells were cultured using MEM medium containing 10% FBS, 1% non-essential amino acid, 1% sodium pyruvate, and 1% penicillin/streptomycin, respectively, at 37° C. in the presence of 5% CO2. After cells were seeded at 300-600 cells/well onto black μClear-plate 384 well (Greiner bio-one Cat. No. 781091), a test substance was added such that the final concentration of DMSO is 0.1%, and cultured for 4 days. The number of living cells was then counted using Cell Titer-Glo (Registered trademark) Luminescent Cell Viability Assay (Promega) to calculate a concentration for 50% inhibition of cell proliferation of respective test substances (Bulk IC50 value; μM).

The subject of test [8] is cancer cells. The test is described as follows: Inhibition test of cancer cell sphere-forming ability, overall statement on Table 2. The conditions noted are these: summary of Table 2. As for the experimental part: HCT-116 cells (derived from human colon adenocarcinoma), HT-29 cells (derived from human colon cancer), FaDu cells (derived from human hypopharynx cancer) were obtained from American Type Culture Collection (ATCC). HCT-116 cells and HT-29 cells were cultured using McCoy's 5a medium containing 10% fetal bovine serum (FBS) and 1% penicillin/streptomycin, and FaDu cells were cultured using MEM medium containing 10% FBS, 1% non-essential amino acid, 1% sodium pyruvate, and 1% penicillin/streptomycin, respectively, at 37° C. in the presence of 5% CO2. HCT-116 cells, HT-29 cells, and FaDu cells were seeded onto 384 Well Black Clear Bottom Ultra-Low Attachment Microplate (Corning Cat. No. 3827) using DMEM/F12 medium containing 2% B27 supplement (GIBCO), 20 ng/mL epidermal growth factor (EGF) (peprotech), 10 ng/mL basic fibroblast growth factor (bFGF) (peprotech), 5 μg/mL insulin (Sigma), and 1% penicillin/streptomycin to be 350-800 cells/well. A test substance was added so that the final concentration of DMSO is 0.1%, and then cultured for 4 days. The number of living cells was then counted using Cell Titer-Glo (registered trademark) Luminescent Cell Viability Assay (Promega) to calculate the concentration for 50% inhibition of cell proliferation of respective test substances (Sphere IC50 value; μM).

Turning to `CC(=O)c1cc2c(s1)C(=O)c1cnccc1C2=O` [Example 33, 2-acetylthieno[3,2-g]isoquinoline-4,9-dione], the IC50 in the test with HCT-116 cells [1] was under 0.01 µM; with FaDu cells [2] it was under 0.01 µM; with HT-29 cells [3] it was 0.09 µM; in the test with HCT-116 cells [4], 0.02 µM; in the test on FaDu cells [5] it was under 0.01 µM; in the test on HT-29 cells [6] it was 0.07 µM. The “effect on the inhibition of the proliferation of cancer cells (in words)” value (“effect on the inhibition” below) in the test on cancer cells [7] was “particularly strong effect”. In the test with cancer cells [8], the “effect to inhibit cancer cell sphere-forming ability (in words)” value is reported as “particularly strong effect”.
`O=C(NCC(F)F)c1cc2c(o1)C(=O)c1ccncc1C2=O` [Example 46, N-(2,2-difluoroethyl)-4,9-dioxo-4,9-dihydrofuro[2,3-g]isoquinoline-2-carboxamide]: the IC50 in the test with HCT-116 cells [1] is under 0.01 µM; in the test on FaDu cells [2], under 0.01 µM; in the test with HT-29 cells [3], 0.05 µM; in the test on HCT-116 cells [4], 0.04 µM; in the test with FaDu cells [5] it was under 0.01 µM; with HT-29 cells [6], 0.05 µM. The “effect on the inhibition” value in the test on cancer cells [7] is reported as “particularly strong effect”. For the same compound, the “effect to inhibit cancer cell sphere-forming ability (in words)” value in the test on cancer cells [8] is listed as “particularly strong effect”.
As for `CC(O)c1cc2c(o1)C(=O)c1cnccc1C2=O` (stereo not shown) [Example 49, 2-(1-hydroxyethyl)furo[3,2-g]isoquinoline-4,9-dione], the IC50 with HCT-116 cells [1] was 0.04 µM; with FaDu cells [2], under 0.01 µM; in the test with HT-29 cells [3], 0.08 µM; in the test with HCT-116 cells [4] it was 0.04 µM; in the test with FaDu cells [5], under 0.01 µM; in the test with HT-29 cells [6], 0.06 µM. In the test with cancer cells [7], the “effect on the inhibition” value was “particularly strong effect”. Further, in the test on cancer cells [8], the “effect to inhibit cancer cell sphere-forming ability (in words)” value is recorded as “particularly strong effect”.
In the case of `O=C1c2ccncc2C(=O)c2c1oc(C(F)F)c2C(=O)N1CCOCC1` [Example 62, 2-(difluoromethyl)-3-(morpholine-4-carbonyl)furo[2,3-g]isoquinoline-4,9-dione], the IC50 was 0.06 µM with HCT-116 cells [1]; 0.04 µM in the test with FaDu cells [2]; 0.57 µM in the test on HT-29 cells [3]; 0.05 µM in the test on HCT-116 cells [4]; under 0.01 µM in the test with FaDu cells [5]; 0.04 µM in the test on HT-29 cells [6]. The “effect on the inhibition” value with cancer cells [7] is “particularly strong effect”. For the same compound, in the test with cancer cells [8], the “effect to inhibit cancer cell sphere-forming ability (in words)” value is recorded as “particularly strong effect”.
On to `O=C1c2cnccc2C(=O)c2oc(C(F)F)cc21` [Example 63, 2-(difluoromethyl)furo[2,3-g]isoquinoline-4,9-dione], for which the IC50 was determined as 0.05 µM in the test with HCT-116 cells [1]; 0.05 µM in the test on FaDu cells [2]; 0.54 µM in the test with HT-29 cells [3]; 0.06 µM in the test on HCT-116 cells [4]; 0.04 µM in the test with FaDu cells [5]; 0.24 µM in the test with HT-29 cells [6]. In addition, the “effect on the inhibition” value in the test on cancer cells [7] is on record as “particularly strong effect”. Besides, the “effect to inhibit cancer cell sphere-forming ability (in words)” value in the test on cancer cells [8] is “particularly strong effect”.

Values taken from patent US10934309B2, “Tricyclic quinone derivative” (Boston Biomedical, Inc., priority 2014, dated 2021).
